Where a SMILES comes first, the peptide text is derived from it. Bridges are numbered along the chain shown (N, C = ends).
Experiments:
[1] = test system: VIPR2 activation-induced phosphorylation of CREB; assay: Western blot of pCREB in prefrontal cortex of neonatal mice after s.c. injection; assay type: in vivo, mouse; conditions: ICR mice at P12, KS-133 1 nmol/g s.c. simultaneously with Ro 25-1553 0.4 nmol/g, 1 h after injection
Description: (§1) For western blot analysis, ICR neonatal mice at P12 (7–10 g body weight) were subcutaneously (s.c.) injected with KS-133 (1 nmol/g) and Ro 25-1553 (0.4 nmol/g, Peptide Institute, Inc. Osaka, Japan), a selective VIPR2 agonist ([Gourlet et al., 1997]; [Harmar et al., 2012]), and adult C57BL/6J mice at 8 weeks of age (20–30 g body weight) were intranasally (i.n.) injected with KS-133 (20 nmol/mouse) and BAY 55-9837 (20 µg/mouse, Tocris Bioscience, Bristol, United Kingdom), another selective VIPR2 agonist ([Tsutsumi et al., 2002]; [Tian et al., 2019]). The dosages of these drugs were determined in a preliminary experiment using the change in phosphorylation of cAMP-response element-binding protein (CREB) as an index. Ro 25-1553 was dissolved in phosphate-buffered saline (PBS) and BAY 55-9837 was dissolved in distilled water. KS-133 was dissolved in saline with 1% dimethyl sulfoxide (DMSO; #13445-74, Nacalai Tesque, Inc., Kyoto, Japan) for s.c. injection or saline with 5% DMSO and 5 mg/ml poly-L-arginine (#P7762, Sigma-Aldrich, St. Louis, MO, United States) for i.n. injection. […]
(§2) FIGURE 4 Effects of subcutaneous (A) and intranasal (B) administration of KS-133 on VIPR2 activation-induced phosphorylation of CREB in the prefrontal cortex of mice. Phospho-CREB (pCREB), total CREB, and β-actin levels were analyzed by western blotting. […]

[2] = test system: mouse model of psychiatric disorders on the basis of early postnatal activation of VIPR2; assay: Novel object recognition test in mouse model of early postnatal activation of VIPR2; assay type: in vivo; conditions: KS-133 1 nmol/g s.c. simultaneously with Ro 25-1553 0.07 nmol/g, P1-14
Description: For behavioral experiments, all litters were randomly divided into Ro 25-1553- and PBS-treated groups. From P1 to P14, mice were injected s.c. once daily with Ro 25-1553 at a dose of 0.07 nmol/g ([Ago et al., 2015]). Mice treated with PBS from P1 to P14 were used as the control. KS-133 or the vehicle was simultaneously injected with Ro 25-1553 or PBS. Animals were weaned at P21 and divided by gender at P28. We used male mice exclusively to minimize any potential variability due to sex-specific effects on behavioral performance. All groups were derived from at least four different litters to preclude possible differences in individual maternal behaviors as a mitigating factor in any subsequent long-lasting changes induced in the offspring. […]
The novel object recognition test was carried out in accordance with previous reports ([Takuma et al., 2014]; [Hara et al., 2016]). […] The exploration time for each object in the retention session was measured with a stopwatch. […]
FIGURE 5 Effects of early postnatal treatment with Ro 25-1553 and KS-133 on recognition memory in the novel object recognition test. […] (B) Discrimination index (%) was calculated as the difference between novel and familiar object exploration times divided by the total time spent exploring the two objects. Results are expressed as the mean ± S.E.M. of 15–20 mice per group. **p < 0.01.

[3] = test system: VIPR2 activation-induced phosphorylation of CREB; assay: Western blot of pCREB in prefrontal cortex of adult mice after i.n. injection; assay type: in vivo; conditions: mice at 8 weeks, KS-133 20 nmol/mouse i.n. with BAY 55-9837 20 µg/mouse, 45 min after injection
Description: as §1, §2

SMILES: CC[C@H](C)[C@H](NC(=O)[C@H](CC(C)C)NC(=O)[C@@H]1CC(=O)NCCCC[C@@H]2NC(=O)[C@@H]3CCCN3C(=O)[C@H](CC(C)C)NC(=O)[C@H](Cc3ccc(O)cc3)NC(=O)[C@@H]3CCCN3C(=O)[C@@H]3CCCN3C(=O)[C@@H](NC(C)=O)CSSC[C@H](NC(=O)[C@H](CC(C)C)NC(=O)[C@H](Cc3ccc(O)cc3)NC2=O)C(=O)N1)C(N)=O [KS-133, Ac-c[Cys-Pro-Pro-Tyr-Leu-Pro-c(Lys-Tyr-Leu-Cys]-Asp)-Leu-Ile-NH2] (Ac-CPPYLPKYLCDLI-NH2; disulfide 1-10; lactam 7-11)
- Effect on Ro 25-1553-induced increase in CREB phosphorylation [1]: suppressed the Ro 25-1553-induced increase in CREB phosphorylation
- Effect on Ro 25-1553-induced recognition memory deficit, novel object recognition test [2]: attenuated the decreases in the difference of time spent exploring each object and cognitive dysfunction
- Effect on BAY 55-9837-induced increase in phosphorylated CREB [3]: blocked

From publication PMC8607231, “Generation of KS-133 as a Novel Bicyclic Peptide with a Potent and Selective VIPR2 Antagonist Activity that Counteracts Cognitive Decline in a Mouse Model of Psychiatric Disorders” (Frontiers in Pharmacology, 2021)
